Measurements from patent US11427558B1, “Indazoles and azaindazoles as LRRK2 inhibitors” (ESCAPE Bio, Inc., priority 2019, dated 2022).

How the values were obtained:
[1] = biological target: Recombinant G2019S-LRRK2 protein (Homo sapiens (Human), UniProt Q5S007, G2019S); assay: LRRK2 kinase activity, LanthaScreen TR-FRET assay (G2019S); type: biochemical; details: LRRKtide 400 nM, 25 μM ATP, 60 min
Method in brief: (§1)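 Recombinant human wild-type or G2019S LRRK2 phosphorylated fluorescein-labelled LRRKtide (ERM-based) with ATP and serially diluted compound for 60 min at room temperature.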

[2] = biological target: Recombinant wild type LRRK2 protein (Homo sapiens (Human), UniProt Q5S007); assay: LRRK2 kinase activity, LanthaScreen TR-FRET assay (wild type); type: biochemical; details: LRRKtide 400 nM, 25 μM ATP, 60 min; read-out: LRRK2 WT IC50
Recombinant wild type LRRK2 protein, sequence (Q5S007 whole entry): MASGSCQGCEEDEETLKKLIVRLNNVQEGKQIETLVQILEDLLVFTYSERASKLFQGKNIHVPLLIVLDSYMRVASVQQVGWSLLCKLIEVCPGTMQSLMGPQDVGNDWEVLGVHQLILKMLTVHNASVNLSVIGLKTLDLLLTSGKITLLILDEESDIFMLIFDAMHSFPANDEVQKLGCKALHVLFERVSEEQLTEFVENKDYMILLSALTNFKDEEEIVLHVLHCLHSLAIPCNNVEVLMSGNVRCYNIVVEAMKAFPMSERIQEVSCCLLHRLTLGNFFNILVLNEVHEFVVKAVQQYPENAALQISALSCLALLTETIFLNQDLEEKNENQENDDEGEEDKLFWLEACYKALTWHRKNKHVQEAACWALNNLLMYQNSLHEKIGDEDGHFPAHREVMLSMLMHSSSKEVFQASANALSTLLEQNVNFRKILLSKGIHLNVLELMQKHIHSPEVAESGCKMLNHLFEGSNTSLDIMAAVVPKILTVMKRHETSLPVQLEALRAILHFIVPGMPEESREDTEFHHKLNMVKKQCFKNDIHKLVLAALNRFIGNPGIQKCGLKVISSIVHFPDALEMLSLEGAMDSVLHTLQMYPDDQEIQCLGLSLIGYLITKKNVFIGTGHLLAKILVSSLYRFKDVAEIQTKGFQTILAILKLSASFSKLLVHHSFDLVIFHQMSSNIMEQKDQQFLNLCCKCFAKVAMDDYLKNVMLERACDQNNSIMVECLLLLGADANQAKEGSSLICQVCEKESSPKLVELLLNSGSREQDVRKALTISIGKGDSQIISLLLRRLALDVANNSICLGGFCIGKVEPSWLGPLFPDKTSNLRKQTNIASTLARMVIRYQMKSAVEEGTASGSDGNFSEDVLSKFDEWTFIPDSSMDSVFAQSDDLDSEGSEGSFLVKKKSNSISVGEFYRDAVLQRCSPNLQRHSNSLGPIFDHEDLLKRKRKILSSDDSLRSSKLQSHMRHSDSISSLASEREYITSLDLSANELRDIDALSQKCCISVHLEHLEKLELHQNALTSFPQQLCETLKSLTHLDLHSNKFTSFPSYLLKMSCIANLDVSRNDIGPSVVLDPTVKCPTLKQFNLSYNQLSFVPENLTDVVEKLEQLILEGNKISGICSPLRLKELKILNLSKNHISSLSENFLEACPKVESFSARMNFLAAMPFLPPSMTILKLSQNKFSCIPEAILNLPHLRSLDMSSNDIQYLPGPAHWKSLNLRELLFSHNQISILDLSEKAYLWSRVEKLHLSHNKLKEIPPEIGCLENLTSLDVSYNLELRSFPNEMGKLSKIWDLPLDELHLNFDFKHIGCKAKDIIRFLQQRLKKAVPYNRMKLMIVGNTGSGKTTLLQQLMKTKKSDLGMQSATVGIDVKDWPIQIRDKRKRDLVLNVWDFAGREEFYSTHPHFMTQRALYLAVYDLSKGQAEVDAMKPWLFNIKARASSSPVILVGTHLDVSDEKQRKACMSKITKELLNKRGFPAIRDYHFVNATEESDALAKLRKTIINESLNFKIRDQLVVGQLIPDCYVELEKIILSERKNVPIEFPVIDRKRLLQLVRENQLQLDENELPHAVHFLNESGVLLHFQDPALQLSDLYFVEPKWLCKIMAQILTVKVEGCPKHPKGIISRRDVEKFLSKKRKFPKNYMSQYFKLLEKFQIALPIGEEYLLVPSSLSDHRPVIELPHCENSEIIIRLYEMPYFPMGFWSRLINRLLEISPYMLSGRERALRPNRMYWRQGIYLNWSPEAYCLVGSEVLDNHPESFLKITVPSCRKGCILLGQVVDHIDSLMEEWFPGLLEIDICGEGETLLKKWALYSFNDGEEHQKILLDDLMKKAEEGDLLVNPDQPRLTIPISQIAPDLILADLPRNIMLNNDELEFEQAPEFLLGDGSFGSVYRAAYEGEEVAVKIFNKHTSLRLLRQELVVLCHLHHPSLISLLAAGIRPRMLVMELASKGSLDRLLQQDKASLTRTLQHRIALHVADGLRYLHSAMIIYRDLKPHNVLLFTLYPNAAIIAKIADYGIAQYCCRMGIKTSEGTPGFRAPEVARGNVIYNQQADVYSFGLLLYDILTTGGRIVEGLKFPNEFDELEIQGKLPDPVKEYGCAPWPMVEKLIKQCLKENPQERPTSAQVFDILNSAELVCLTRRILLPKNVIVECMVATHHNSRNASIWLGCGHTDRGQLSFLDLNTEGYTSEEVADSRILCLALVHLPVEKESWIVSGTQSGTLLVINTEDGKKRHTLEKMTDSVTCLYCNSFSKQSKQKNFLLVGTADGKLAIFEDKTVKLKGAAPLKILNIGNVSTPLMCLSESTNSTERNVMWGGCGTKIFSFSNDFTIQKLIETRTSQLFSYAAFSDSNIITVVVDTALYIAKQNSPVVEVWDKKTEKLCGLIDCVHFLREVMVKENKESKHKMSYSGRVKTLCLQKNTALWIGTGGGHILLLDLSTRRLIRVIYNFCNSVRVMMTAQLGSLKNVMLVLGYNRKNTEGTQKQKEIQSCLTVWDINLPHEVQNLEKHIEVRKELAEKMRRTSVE
Method in brief: as §1

Recombinant G2019S-LRRK2 protein, sequence (Q5S007 whole entry G2019S): as the sequence (Q5S007 whole entry) above, with G2019S counted along it

Row | SMILES | IC50 [1] [nM] | IC50 [2] [nM]
1 | COc1nc(C(=O)Nc2ccc3[nH]nc(Cl)c3c2)c(C)c(C)c1C#N [Example 321, N-(3-Chloro-1H-indazol-5-yl)-5-cyano-6-methoxy-3,4-dimethylpicolinamide] | < 100 | 100 to 1000
2 | Cc1c(C#N)cnc(C(=O)Nc2ccc3[nH]nc(/C=C/C4CC4)c3c2)c1C [Example 233, (E)-5-Cyano-N-(3-(2-cyclopropylvinyl)-1H-indazol-5-yl)-3,4-dimethylpicolinamide] | < 100 | < 100
3 | Cc1cc(C#N)cnc1C(=O)Nc1ccc2[nH]nc(-c3cncs3)c2c1 [Example 110, 5-Cyano-3-methyl-N-(3-(thiazol-5-yl)-1H-indazol-5-yl)picolinamide] | < 100 | 100 to 1000
4 | COc1cccc(-c2n[nH]c3ccc(NC(=O)c4ncc(C#N)cc4C)cc23)c1 [Example 53, 5-Cyano-N-(3-(3-methoxyphenyl)-1H-indazol-5-yl)-3-methylpicolinamide] | < 100 | 100 to 1000
5 | Cc1c(C#N)cnc(C(=O)Nc2ccc3[nH]nc(-c4cnn(C5COC5)c4)c3c2)c1C [Example 221, 5-Cyano-3,4-dimethyl-N-(3-(1-(oxetan-3-yl)-1H-pyrazol-4-yl)-1H-indazol-5-yl)picolinamide] | < 100 | < 100
6 | COc1c(C#N)cnc(C(=O)Nc2ccc3[nH]nc(-c4cnoc4)c3c2)c1C [Example 226, 5-Cyano-N-(3-(isoxazol-4-yl)-1H-indazol-5-yl)-4-methoxy-3-methylpicolinamide] | < 100 | < 100
7 | N#Cc1cccc(C(=O)Nc2ccc3[nH]nc(-c4ccoc4)c3c2)c1Br [Example 89, 2-bromo-3-cyano-N-(3-(furan-3-yl)-1H-indazol-5-yl)benzamide] | < 100 | < 100
8 | Cc1cc(C#N)cnc1C(=O)Nc1ccc2[nH]nc(-c3ccno3)c2c1 [Example 101, 5-Cyano-N-(3-(isoxazol-5-yl)-1H-indazol-5-yl)-3-methylpicolinamide] | < 100 | 100 to 1000
9 | N#Cc1cccc(C(=O)Nc2ccc3[nH]nc(-c4ccoc4)c3c2)c1C(F)(F)F [Example 173, 3-Cyano-N-(3-(furan-3-yl)-1H-indazol-5-yl)-2-(trifluoromethyl)benzamide] | < 100 | < 100
10 | N#Cc1ccc(C(=O)Nc2ccc3[nH]nc(-c4ccoc4)c3c2)c(F)c1 [Example 3, 4-Cyano-2-fluoro-N-(3-(furan-3-yl)-1H-indazol-5-yl)benzamide] | < 100 | < 100
11 | N#Cc1cnc(C(=O)Nc2ccc3[nH]nc(-c4cnco4)c3c2)c(C2CC2)c1 [Example 312, 5-Cyano-3-cyclopropyl-N-(3-(oxazol-5-yl)-1H-indazol-5-yl)picolinamide] | < 100 | 100 to 1000
12 | N#Cc1cnc(C(=O)Nc2ccc3[nH]nc(-c4cnoc4)c3c2)c(Cl)c1 [Example 309, 3-Chloro-5-cyano-N-(3-(isoxazol-4-yl)-1H-indazol-5-yl)picolinamide] | < 100 | < 100
13 | Cc1c(C(=O)Nc2ccc3[nH]nc(-c4ccccc4)c3c2)nc(C#N)n1C [Example 104, 2-Cyano-1,5-dimethyl-N-(3-phenyl-1H-indazol-5-yl)-1H-imidazole-4-carboxamide] | 100 to 1000 | 100 to 1000
14 | Cc1cc(C#N)cnc1C(=O)Nc1ccc2[nH]nc(-c3ccn(C)c(=O)c3)c2c1 [Example 152, 5-cyano-3-methyl-N-(3-(1-methyl-2-oxo-1,2-dihydropyridin-4-yl)-1H-indazol-5-yl)picolinamide] | 100 to 1000 | 1000 to 10000
15 | COc1ccc(-c2n[nH]c3ccc(NC(=O)c4ncc(C#N)cc4C)cc23)cn1 [Example 52, 5-Cyano-N-(3-(6-methoxypyridin-3-yl)-1H-indazol-5-yl)-3-methylpicolinamide] | < 100 | 100 to 1000
16 | Cc1c(C(=O)Nc2ccc3[nH]nc(Cl)c3c2)nc(Cl)c(C#N)c1C [Example 320, 6-Chloro-N-(3-chloro-1H-indazol-5-yl)-5-cyano-3,4-dimethylpicolinamide] | < 100 | < 100
17 | COc1c(C#N)ccc(C)c1C(=O)Nc1ccc2[nH]nc(C)c2c1 [Example 299, 3-Cyano-2-methoxy-6-methyl-N-(3-methyl-1H-indazol-5-yl)benzamide] | < 100 | 100 to 1000
18 | Cc1ncc(-c2n[nH]c3ccc(NC(=O)c4ncc(C#N)c(C)c4C)cc23)o1 [Example 174, 5-Cyano-3,4-dimethyl-N-(3-(2-methyloxazol-5-yl)-1H-indazol-5-yl)picolinamide] | < 100 | < 100
19 | Cc1cc(-c2n[nH]c3ccc(NC(=O)c4ncc(C#N)c(C)c4C)cc23)on1 [Example 229, 5-Cyano-3,4-dimethyl-N-(3-(3-methylisoxazol-5-yl)-1H-indazol-5-yl)picolinamide] | < 100 | < 100
20 | Cc1c(C#N)cnc(C(=O)Nc2ccc3[nH]nc(-c4cccn(C)c4=O)c3c2)c1C [Example 280, 5-Cyano-3,4-dimethyl-N-(3-(1-methyl-2-oxo-1,2-dihydropyridin-3-yl)-1H-indazol-5-yl)picolinamide] | 1000 to 10000 | 1000 to 10000
21 | Cc1c(C#N)cnc(C(=O)Nc2ccc3[nH]nc(C=C4CCC4)c3c2)c1C [Example 276, 5-Cyano-N-(3-(cyclobutylidenemethyl)-1H-indazol-5-yl)-3,4-dimethylpicolinamide] | < 100 | 100 to 1000
22 | Cc1ccc(C#N)c(F)c1C(=O)Nc1ccc2[nH]nc(-c3ccoc3)c2c1 [Example 128, 3-Cyano-2-fluoro-N-(3-(furan-3-yl)-1H-indazol-5-yl)-6-methylbenzamide] | < 100 | < 100
23 | C/C=C/c1n[nH]c2ccc(NC(=O)c3ncc(C#N)c(C)c3C)cc12 [Example 245, (E)-5-cyano-3,4-dimethyl-N-(3-(prop-1-en-1-yl)-1H-indazol-5-yl)picolinamide] | < 100 | 100 to 1000
24 | Cc1cc(C#N)cnc1C(=O)Nc1ccc2[nH]nc(OCc3ccccc3)c2c1 [Example 255, N-(3-(Benzyloxy)-1H-indazol-5-yl)-5-cyano-3-methylpicolinamide] | < 100 | 100 to 1000
25 | Cc1c(C(=O)Nc2ccc3[nH]nc(-c4cnn(C(F)F)c4)c3c2)nc(Cl)c(C#N)c1C [Example 175, 6-Chloro-5-cyano-N-(3-(1-(difluoromethyl)-1H-pyrazol-4-yl)-1H-indazol-5-yl)-3,4-dimethylpicolinamide] | < 100 | < 100
26 | Cc1cc(C#N)cnc1C(=O)Nc1ccc2[nH]nc(-c3ccc(C(F)(F)F)cc3)c2c1 [Example 35, 5-Cyano-3-methyl-N-(3-(4-(trifluoromethyl)phenyl)-1H-indazol-5-yl)picolinamide] | 100 to 1000 | > 10000
27 | N#Cc1cccc(C(=O)Nc2ccc3[nH]nc(-c4ccoc4)c3c2)c1Cl [Example 86, 2-chloro-3-cyano-N-(3-(furan-3-yl)-1H-indazol-5-yl)benzamide] | < 100 | < 100
28 | Cc1cc(C#N)cnc1C(=O)Nc1ccc2[nH]nc(-n3cccn3)c2c1 [Example 136, N-(3-(1H-Pyrazol-1-yl)-1H-indazol-5-yl)-5-cyano-3-methylpicolinamide] | 100 to 1000 | 1000 to 10000
